From patent US4022787A (priority 1975, dated 1977)
Structures can show the parent of a compound that is named as a salt.

Tests used:
rabbit eye pupil = conditions: in vivo
sweat glands = conditions: cited from earlier work

| SMILES | rabbit eye pupil result compared with test compound (rabbit eye pupil) | sweat inhibition (sweat glands) |
| --- | --- | --- |
| CN1[C@@H]2CC[C@H]1C[C@@H](OC(=O)C(CO)c1ccccc1)C2 (some centres unmarked) [Atropine sulfate] | gave similar results |  |
| CN1C2CC(OC(=O)C(COC(=O)c3ccccc3)c3ccccc3)CC1C1OC12 (centres unmarked) [benzoyl ester of scopolamine] |  | valuable for sweat inhibition |
